Test results from ChEMBL document CHEMBL1201862, “PubChem BioAssay data set” (2004).
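These data come from cells grown in 96-well plates and exposed to compound for 48 hours at five concentrations. Abbreviation: GI50, concentration required for 50% inhibition of growth.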 Active and inactive are the calls of the source. No stated cut-off is given here; in the data, active = GI50 up to about 1.1 µM and inactive = higher.

Experiments:
Experiment in all cases: NCI tumour cell line growth inhibition, 48 h
786-0 = system: 786-0
A498 = system: A498
HOP-62 = system: HOP-62
Hs-578T = system: Hs-578T
M14 = system: M14
MCF7 = system: MCF7
MDA-MB-231 = system: MDA-MB-231
MDA-MB-435 = system: MDA-MB-435
NCI-H226 = system: NCI-H226
NCI/ADR-RES = system: NCI/ADR-RES
OVCAR-5 = system: OVCAR-5
PC-3 = system: PC-3
SF-268 = system: SF-268
SN12C = system: SN12C
T47D = system: T47D
UACC-257 = system: UACC-257
DU-145 = system: DU-145

For `COC(=O)/C=C/c1cnc2c(c1)oc(=O)n2CCc1ccccn1`, the GI50 (786-0) was > 100 µM (inactive), the GI50 (A498) was 0.773 µM (active) and the GI50 (HOP-62) was > 100 µM (inactive). For the same molecule, the GI50 (Hs-578T) was > 100 µM (inactive), the GI50 (M14) was > 100 µM (inactive) and the GI50 (MCF7) was > 100 µM (inactive). The GI50 (MDA-MB-231) was > 100 µM (inactive), the GI50 (MDA-MB-435) was 20.8 µM (inactive) and the GI50 (NCI-H226) was 17.2 µM (inactive). The GI50 (NCI/ADR-RES) was 40.1 µM (inactive), the GI50 (OVCAR-5) was > 100 µM (inactive) and the GI50 (PC-3) was 90.2 µM (inactive). The GI50 (SF-268) was > 100 µM (inactive), the GI50 (SN12C) was > 100 µM (inactive) and the GI50 (T47D) was 50.6 µM (inactive). For the same molecule, the GI50 (UACC-257) was > 100 µM (inactive).

In the case of `COc1ccc(CCn2cnc3ccccc32)cc1`, the GI50 (786-0) is reported as > 100 µM (inactive), the GI50 (A498) is reported as > 100 µM (inactive) and the GI50 (DU-145) is reported as > 100 µM (inactive). For the same molecule, the GI50 (HOP-62) was > 100 µM (inactive), the GI50 (Hs-578T) was > 100 µM (inactive) and the GI50 (M14) was > 100 µM (inactive). For the same molecule, the GI50 (MCF7) was > 100 µM (inactive), the GI50 (MDA-MB-231) was > 100 µM (inactive) and the GI50 (MDA-MB-435) was > 100 µM (inactive). For the same molecule, the GI50 (NCI-H226) was > 100 µM (inactive), the GI50 (NCI/ADR-RES) was > 100 µM (inactive) and the GI50 (OVCAR-5) was > 100 µM (inactive). For the same molecule, the GI50 (PC-3) was > 100 µM (inactive), the GI50 (SF-268) was > 100 µM (inactive) and the GI50 (SN12C) was > 100 µM (inactive). The GI50 (UACC-257) was > 100 µM (inactive).

For `C(=N\c1ccc(-c2cc(-c3ccccc3)nc3ccc4ccccc4c23)cc1)/c1ccccc1`, the GI50 (786-0) was 19.5 µM (inactive), the GI50 (A498) was 26.7 µM (inactive) and the GI50 (DU-145) was 20.7 µM (inactive). The GI50 (HOP-62) was 20.9 µM (inactive), the GI50 (Hs-578T) was 5.86 µM (inactive) and the GI50 (M14) was 18.1 µM (inactive). For the same molecule, the GI50 (MCF7) was 9.25 µM (inactive), the GI50 (MDA-MB-231) was 11.2 µM (inactive) and the GI50 (MDA-MB-435) was 21.2 µM (inactive). The GI50 (NCI-H226) was 22.3 µM (inactive), the GI50 (NCI/ADR-RES) was 28.5 µM (inactive) and the GI50 (OVCAR-5) was 56.1 µM (inactive). The GI50 (PC-3) was 13.2 µM (inactive), the GI50 (SF-268) was 7.48 µM (inactive) and the GI50 (SN12C) was 8.39 µM (inactive). For the same molecule, the GI50 (UACC-257) was 23.5 µM (inactive).

`c1ccc2c(CSCc3cccc4ccccc34)cccc2c1` was tested, and the GI50 (786-0) was > 100 µM (inactive), the GI50 (A498) was > 100 µM (inactive) and the GI50 (DU-145) was > 100 µM (inactive). The GI50 (HOP-62) was > 100 µM (inactive), the GI50 (Hs-578T) was > 100 µM (inactive) and the GI50 (M14) was > 100 µM (inactive). The GI50 (MDA-MB-231) was > 100 µM (inactive), the GI50 (MDA-MB-435) was > 100 µM (inactive) and the GI50 (NCI-H226) was > 100 µM (inactive). For the same molecule, the GI50 (NCI/ADR-RES) was > 100 µM (inactive), the GI50 (OVCAR-5) was > 100 µM (inactive) and the GI50 (PC-3) was 43.4 µM (inactive). For the same molecule, the GI50 (SF-268) was > 100 µM (inactive), the GI50 (SN12C) was > 100 µM (inactive) and the GI50 (T47D) was 53.6 µM (inactive). The GI50 (UACC-257) was 52.7 µM (inactive).

For `COc1ccc(C2=NN(C(=O)c3cccnc3)C(O)(c3cc(F)c(Cl)cc3Cl)C2)cc1OC` (stereo not drawn), the GI50 (786-0) was 22 µM (inactive), the GI50 (DU-145) was 27.9 µM (inactive) and the GI50 (HOP-62) was 19 µM (inactive). The GI50 (Hs-578T) was 19.4 µM (inactive), the GI50 (M14) was 15.8 µM (inactive) and the GI50 (MDA-MB-231) was 13.9 µM (inactive). For the same molecule, the GI50 (MDA-MB-435) was 15.2 µM (inactive), the GI50 (NCI-H226) was 12.8 µM (inactive) and the GI50 (NCI/ADR-RES) was 14.8 µM (inactive). For the same molecule, the GI50 (OVCAR-5) was 30.2 µM (inactive), the GI50 (PC-3) was 12.6 µM (inactive) and the GI50 (SF-268) was 17.3 µM (inactive). The GI50 (SN12C) was 15.3 µM (inactive), the GI50 (T47D) was 24 µM (inactive) and the GI50 (UACC-257) was 13.6 µM (inactive).

In the case of `CCN(CC)Cc1sc2nc3ccccc3n2c1-c1ccc(OC)cc1`, the GI50 (786-0) is reported as 35.2 µM (inactive), the GI50 (A498) is reported as 22.9 µM (inactive) and the GI50 (DU-145) is reported as 35.4 µM (inactive). The GI50 (HOP-62) was 65.5 µM (inactive), the GI50 (Hs-578T) was 34.9 µM (inactive) and the GI50 (M14) was 25.6 µM (inactive). The GI50 (MCF7) was 23 µM (inactive), the GI50 (MDA-MB-231) was 60.4 µM (inactive) and the GI50 (MDA-MB-435) was 3.05 µM (inactive). For the same molecule, the GI50 (NCI-H226) was 22.8 µM (inactive), the GI50 (NCI/ADR-RES) was 15 µM (inactive) and the GI50 (OVCAR-5) was 76 µM (inactive). For the same molecule, the GI50 (PC-3) was 17.4 µM (inactive), the GI50 (SF-268) was 24.3 µM (inactive) and the GI50 (UACC-257) was > 100 µM (inactive).

For `CN(Cc1cnc2nc(N)nc(N)c2n1)c1ccc(C(=O)NC(CCC(=O)O)C(=O)O)cc1` (stereo not drawn), the GI50 (A498) was > 100 µM (inactive), the GI50 (DU-145) was 0.0154 µM (active) and the GI50 (M14) was 0.117 µM (active). The GI50 (MDA-MB-231) was > 100 µM (inactive), the GI50 (MDA-MB-435) was < 0.01 µM (active) and the GI50 (NCI-H226) was 5.38 µM (inactive). For the same molecule, the GI50 (NCI/ADR-RES) was 0.0249 µM (active), the GI50 (OVCAR-5) was > 100 µM (inactive) and the GI50 (PC-3) was 3.81 µM (inactive). For the same molecule, the GI50 (SF-268) was < 0.0298 µM (active), the GI50 (SN12C) was < 0.011 µM (active) and the GI50 (UACC-257) was 0.815 µM (active).

For `CCN1CCN(c2nc3ccccc3nc2C(=O)c2ccc(OC)c(OC)c2)CC1`, the GI50 (786-0) was 10.7 µM (inactive), the GI50 (A498) was 27.7 µM (inactive) and the GI50 (DU-145) was 30.5 µM (inactive). For the same molecule, the GI50 (HOP-62) was 21.4 µM (inactive), the GI50 (M14) was 16.2 µM (inactive) and the GI50 (MCF7) was 18.2 µM (inactive). The GI50 (MDA-MB-231) was 14.8 µM (inactive), the GI50 (MDA-MB-435) was 25.4 µM (inactive) and the GI50 (NCI-H226) was 22.3 µM (inactive). For the same molecule, the GI50 (NCI/ADR-RES) was 1.6 µM (inactive), the GI50 (OVCAR-5) was 41.7 µM (inactive) and the GI50 (PC-3) was 32.7 µM (inactive). For the same molecule, the GI50 (SF-268) was 19.3 µM (inactive), the GI50 (SN12C) was 42.1 µM (inactive) and the GI50 (T47D) was > 100 µM (inactive). For the same molecule, the GI50 (UACC-257) was 21.9 µM (inactive).

In the case of `O=C(/C=C/c1cccs1)c1ccc(C(=O)/C=C/c2cccs2)cc1`, the GI50 (786-0) is reported as > 100 µM (inactive), the GI50 (A498) is reported as > 100 µM (inactive) and the GI50 (DU-145) is reported as > 100 µM (inactive). The GI50 (HOP-62) was > 100 µM (inactive), the GI50 (Hs-578T) was > 100 µM (inactive) and the GI50 (M14) was > 100 µM (inactive). The GI50 (MDA-MB-231) was > 100 µM (inactive), the GI50 (MDA-MB-435) was > 100 µM (inactive) and the GI50 (NCI-H226) was > 100 µM (inactive). For the same molecule, the GI50 (NCI/ADR-RES) was > 100 µM (inactive), the GI50 (OVCAR-5) was > 100 µM (inactive) and the GI50 (PC-3) was > 100 µM (inactive). For the same molecule, the GI50 (SF-268) was > 100 µM (inactive), the GI50 (SN12C) was > 100 µM (inactive) and the GI50 (T47D) was > 100 µM (inactive). The GI50 (UACC-257) was > 100 µM (inactive).
